Test results as given in patent publication US20090203734A1, “F1F0-ATPASE INHIBITORS AND RELATED METHODS” (The Regents of the University of Michigan, priority 2008, published 2009).

Legend:
bovine F1Fo-ATPase [1] = molecular target: T1, bovine F1Fo-ATPase (Bos taurus, UniProt P13621); experiment: ATP hydrolysis by F1Fo-ATPase in bovine submitochondrial particles (SMPs); type: biochemical
T1 construct: bovine F1Fo-ATPase present in submitochondrial particles (SMPs); from tissue

bovine F1Fo-ATPase [2] = molecular target: T1, bovine F1Fo-ATPase; experiment: ATP synthesis by F1Fo-ATPase in bovine submitochondrial particles (SMPs); type: biochemical
Ramos B cells [3] = experiment: Early superoxide (O2-, ROS) response in Ramos B cells; type: cell-based; settings: Homo sapiens, O2- response 1 h following incubation with drug
Description: (§1) Since an early mitochondrial superoxide (O2^−) mediates apoptosis induced by Bz-423, the O2^− response of cells 1 h following incubation with drug was examined, as well as cell death at 24 h, as previously described (see, e.g., Blatt, N. B., et al., 2002 J Clin Invest 110, 1123-1132; incorporated herein by reference in its entirety).

Jurkat T cells [4] = experiment: Cell death in Jurkat T cells; type: cell-based; settings: Homo sapiens, cell death at 24 h
Description: as §1

Jurkat T cells [5] = experiment: Early superoxide (O2-, ROS) response in Jurkat T cells; type: cell-based; settings: Homo sapiens, O2- response 1 h following incubation with drug
Description: as §1

Ramos B cells [6] = experiment: Cell death in Ramos B cells; type: cell-based; settings: Homo sapiens, cell death at 24 h
Description: as §1

[7] = bovine SMPs, drug 0-300 μM, read-out: ATPase activity EC50, Hydrolysis
[8] = read-out: ATPase activity EC50, Synthesis

| SMILES | EC50 (bovine F1Fo-ATPase [1]; [7]) | EC50 (bovine F1Fo-ATPase [2]; [8]) | EC50 (bovine F1Fo-ATPase [1]) | EC50 (bovine F1Fo-ATPase [2]; ATPase activity EC50, Synthesis) | EC50 (Ramos B cells [3]) | EC50 (Jurkat T cells [4]) | EC50 (Jurkat T cells [5]) | EC50 (Ramos B cells [6]) |
| --- | --- | --- | --- | --- | --- | --- | --- | --- |
| CN1C(=O)C(Cc2ccc3ccccc3c2)N=C(c2ccc(O)cc2)c2cc(Cl)ccc21 (stereo not drawn) [Bz-423] | 8.9 µM | 5.5 µM | – | – | – | – | – | – |
| CN1C(=O)CN=C(c2ccc(Cl)cc2)c2cc(Cl)ccc21 [Compound 4-Cl-Dz, 4-chlorodiazepam] | > 300 µM | 210 µM | – | – | – | – | – | – |
| O=C1CN=C(c2ccccc2Cl)c2cc([N+](=O)[O-])ccc2N1 [Cz, clonazepam] | 240 µM | 120 µM | – | – | – | – | – | – |
| CN1C(=O)CN=C(c2ccccc2)c2cc(Cl)ccc21 [Dz, diazepam] | – | – | > 300 µM | 210 µM | 170 µM | 170 µM | 200 µM | 250 µM |
